Results: ChEMBL document CHEMBL5143659, “Concise synthesis and preliminary biological evaluation of new triazolylthioacetone derivatives bearing pyridine, pyrazine, and 3,4,5-trimethoxybenzyl fragment” (Bioorg Med Chem Lett, 2022)
Blank lines part the entries; values can stand above or below the molecule they belong to.

Legend:
HepG2 = assay: Antiproliferative activity against human HepG2 cells assessed as inhibition of cell growth by MTT assay; assay type: functional, cell-based
HCT-116 [1] = assay: Antiproliferative activity against human HCT-116 cells assessed as inhibition of cell growth by MTT assay; assay type: functional, cell-based
[2] = target: Vascular endothelial growth factor receptor 2 (Homo sapiens, UniProt P35968); assay: Inhibition of VEGFR2 (unknown origin) by kinase-glo luminescent assay
HT-29 = assay: Antiproliferative activity against human HT-29 cells assessed as inhibition of cell growth by MTT assay; assay type: functional, cell-based
HeLa = assay: Antiproliferative activity against human HeLa cells assessed as inhibition of cell growth by MTT assay; assay type: functional, cell-based
[3] = Cytotoxicity against HEK293 cells assessed as inhibition of cell growth by MTT assay; assay type: toxicity, cell-based; conditions: human
HCT-116 [4] = assay: Induction of cell cycle arrest in human HCT-116 cells assessed as accumulation of cells at G1/G0 phase at 0.75 uM incubated for 24 hrs by PI staining based flow cytometry analysis (reference value: 31.33 %); assay type: functional
HCT-116 [5] = assay: Induction of cell cycle arrest in human HCT-116 cells assessed as accumulation of cells at S phase at 0.75 uM incubated for 24 hrs by PI staining based flow cytometry analysis (reference value: 47.56 %); assay type: functional
HCT-116 [6] = assay: Induction of cell cycle arrest in human HCT-116 cells assessed as accumulation of cells at G2/M phase at 0.75 uM incubated for 24 hrs by PI staining based flow cytometry analysis (reference value: 21.10 %); assay type: functional
HCT-116 [7] = assay: Induction of cell cycle arrest in human HCT-116 cells assessed as accumulation of cells at G1/G0 phase at 1.5 uM incubated for 24 hrs by PI staining based flow cytometry analysis (reference value: 31.33 %); assay type: functional
HCT-116 [8] = assay: Induction of cell cycle arrest in human HCT-116 cells assessed as accumulation of cells at S phase at 1.5 uM incubated for 24 hrs by PI staining based flow cytometry analysis (reference value: 47.56 %); assay type: functional
HCT-116 [9] = assay: Induction of cell cycle arrest in human HCT-116 cells assessed as accumulation of cells at G2/M phase at 1.5 uM incubated for 24 hrs by PI staining based flow cytometry analysis (reference value: 21.10 %); assay type: functional
HCT-116 [10] = assay: Induction of cell cycle arrest in human HCT-116 cells assessed as accumulation of cells at G1/G0 phase at 3 uM incubated for 24 hrs by PI staining based flow cytometry analysis (reference value: 31.33 %); assay type: functional
HCT-116 [11] = assay: Induction of cell cycle arrest in human HCT-116 cells assessed as accumulation of cells at S phase at 3 uM incubated for 24 hrs by PI staining based flow cytometry analysis (reference value: 47.56 %); assay type: functional
HCT-116 [12] = assay: Induction of cell cycle arrest in human HCT-116 cells assessed as accumulation of cells at G2/M phase at 3 uM incubated for 24 hrs by PI staining based flow cytometry analysis (reference value: 21.10 %); assay type: functional
Tubulin (Homo sapiens) = Tubulin (Homo sapiens) (UniProt P68371+Q9H4B7+P0DPH7+P68366+Q13509+Q71U36+P04350+Q3ZCM7+P07437+P68363+Q9BQE3+Q6PEY2+Q13885+Q9BVA1+Q9BUF5); assay: Inhibition of tubulin polymerization (unknown origin) at 10 uM measured every minute for 20 mins by fluorescence based assay relative to control; assay type: protein-complex assay
Tubulin = assay: Inhibition of tubulin polymerization (unknown origin) measured every minute for 20 mins by fluorescence based assay; assay type: protein-complex assay, Homo sapiens

Vascular endothelial growth factor receptor 2, sequence (P35968 whole entry): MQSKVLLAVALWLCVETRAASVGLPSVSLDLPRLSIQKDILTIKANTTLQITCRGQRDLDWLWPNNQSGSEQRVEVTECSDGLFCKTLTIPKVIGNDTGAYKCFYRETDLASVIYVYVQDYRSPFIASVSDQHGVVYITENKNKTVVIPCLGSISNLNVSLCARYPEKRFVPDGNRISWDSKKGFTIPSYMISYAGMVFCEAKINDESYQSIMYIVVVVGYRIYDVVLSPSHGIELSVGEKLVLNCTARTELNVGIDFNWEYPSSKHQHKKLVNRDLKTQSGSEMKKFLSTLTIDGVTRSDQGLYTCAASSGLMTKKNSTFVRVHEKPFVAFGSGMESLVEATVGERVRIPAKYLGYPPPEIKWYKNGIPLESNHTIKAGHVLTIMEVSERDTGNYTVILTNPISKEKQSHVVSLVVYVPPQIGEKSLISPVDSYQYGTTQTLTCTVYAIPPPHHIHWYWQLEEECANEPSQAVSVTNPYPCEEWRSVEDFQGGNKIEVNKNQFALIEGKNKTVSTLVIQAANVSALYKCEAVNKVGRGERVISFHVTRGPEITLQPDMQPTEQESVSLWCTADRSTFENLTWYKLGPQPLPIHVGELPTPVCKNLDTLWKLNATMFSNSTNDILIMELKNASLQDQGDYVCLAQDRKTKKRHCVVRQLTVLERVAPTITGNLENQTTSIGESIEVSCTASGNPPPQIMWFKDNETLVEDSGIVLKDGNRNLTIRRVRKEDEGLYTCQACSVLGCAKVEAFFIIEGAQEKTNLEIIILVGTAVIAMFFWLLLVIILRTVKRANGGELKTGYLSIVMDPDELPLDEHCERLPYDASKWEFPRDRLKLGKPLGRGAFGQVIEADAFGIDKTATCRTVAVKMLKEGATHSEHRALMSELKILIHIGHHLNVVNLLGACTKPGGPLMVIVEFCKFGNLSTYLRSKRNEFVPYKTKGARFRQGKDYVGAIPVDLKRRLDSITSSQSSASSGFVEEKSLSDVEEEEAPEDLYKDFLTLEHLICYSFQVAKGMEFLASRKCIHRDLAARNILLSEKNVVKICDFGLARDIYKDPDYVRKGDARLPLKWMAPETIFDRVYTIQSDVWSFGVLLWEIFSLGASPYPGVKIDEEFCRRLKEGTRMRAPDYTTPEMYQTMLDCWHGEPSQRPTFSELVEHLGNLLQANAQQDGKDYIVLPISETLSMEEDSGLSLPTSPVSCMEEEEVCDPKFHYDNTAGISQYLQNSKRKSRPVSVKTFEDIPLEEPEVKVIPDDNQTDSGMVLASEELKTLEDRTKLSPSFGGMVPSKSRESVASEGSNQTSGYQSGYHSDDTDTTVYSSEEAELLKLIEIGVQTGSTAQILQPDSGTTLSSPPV

Structure (SMILES): O=C(CSc1nnc(-c2cnccn2)n1N1C(=O)c2ccccc2C1=O)c1ccc(Cl)cc1
IC50 (HepG2): > 100 µM

Structure (SMILES): COc1cc(Cc2nnc(SCC(=O)C3CC3)n2N2C(=O)c3ccccc3C2=O)cc(OC)c1OC
IC50 (HepG2): > 100 µM

Structure (SMILES): COc1ccc(/C=C\c2cc(OC)c(OC)c(OC)c2)cc1O [COMBRETASTATIN A4]
IC50 (HCT-116 [1]): 1.1 µM

Structure (SMILES): COc1ccc(/C=N/n2c(SCC(=O)c3ccc(Cl)cc3)nnc2-c2cc3ccccc3[nH]2)cc1
IC50 [2]: 0.071 µM

Structure (SMILES): COc1cc(Cc2nnc(SCC(=O)c3ccc(Cl)cc3)n2N2C(=O)c3ccccc3C2=O)cc(OC)c1OC
IC50 (HepG2): 94.8 µM

Structure (SMILES): COc1cc(Cc2nnc(SCC(=O)c3ccc(C)cc3)n2N2C(=O)c3ccccc3C2=O)cc(OC)c1OC
IC50 (HepG2): > 100 µM

Structure (SMILES): O=C(CSc1nnc(-c2ccccn2)n1N1C(=O)c2ccccc2C1=O)C1CC1
IC50 (HepG2): > 100 µM

Structure (SMILES): O=C(CSc1nnc(-c2ccccn2)n1N1C(=O)c2ccccc2C1=O)c1ccc(C(F)(F)F)cc1
IC50 (HepG2): 94.3 µM

Structure (SMILES): CC(=O)CSc1nnc(-c2ccccn2)n1N1C(=O)c2ccccc2C1=O
IC50 (HepG2): > 100 µM

Structure (SMILES): O=C(CSc1nnc(-c2cnccn2)n1N1C(=O)c2ccccc2C1=O)C1CC1
IC50 (HepG2): > 100 µM

Structure (SMILES): COc1cc(Cc2nnc(SCC(C)=O)n2N2C(=O)c3ccccc3C2=O)cc(OC)c1OC
IC50 (HepG2): > 100 µM

Structure (SMILES): O=C(CSc1nnc(-c2cnccn2)n1N1C(=O)c2ccccc2C1=O)c1ccc(C(F)(F)F)cc1
IC50 (HepG2): > 100 µM

Structure (SMILES): CC(=O)CSc1nnc(-c2cnccn2)n1N1C(=O)c2ccccc2C1=O
IC50 (HepG2): > 100 µM

Structure (SMILES): COc1cc(-c2nnc(SCC(=O)c3ccc(C)cc3)n2N2C(=O)c3ccccc3C2=O)cc(OC)c1OC
IC50 (HT-29): 76.4 µM
IC50 (HCT-116 [1]): > 100 µM
IC50 (HeLa): 16.2 µM
IC50 [3]: > 100 µM
inhibition (Tubulin (Homo sapiens)): 19%

Structure (SMILES): O=C(CSc1nnc(-c2ccccn2)n1N1C(=O)c2ccccc2C1=O)c1ccccc1
IC50 (HepG2): > 100 µM

Structure (SMILES): COc1cc(COc2nnc(SCC(=O)c3ccc(Cl)cc3)n2N2C(=O)c3ccccc3C2=O)cc(OC)c1OC
IC50 (HepG2): > 100 µM

More lines, main results first:

IC50 (HepG2): 65.2 µM
Structure (SMILES): Cc1ccc(C(=O)CSc2nnc(-c3ccccn3)n2N2C(=O)c3ccccc3C2=O)cc1

IC50 (HepG2): 80.3 µM
Structure (SMILES): COc1cc(COc2nnc(SCC(=O)c3ccc(C)cc3)n2N2C(=O)c3ccccc3C2=O)cc(OC)c1OC

IC50 (HepG2): 3.65 µM
IC50 (HT-29): 0.62 µM
IC50 (HCT-116 [1]): 1.46 µM
IC50 (HeLa): 9.02 µM
inhibition (Tubulin (Homo sapiens)): 36%
IC50 (Tubulin): 12.7 µM
Structure (SMILES): COc1cc(Cc2nnc(SCC(=O)c3ccc(C)cc3)n2N)cc(OC)c1OC
IC50 [3]: > 100 µM
Activity (HCT-116 [4]): 29.3%
Activity (HCT-116 [5]): 36.97%
Activity (HCT-116 [6]): 33.73%
Activity (HCT-116 [7]): 33.76%
Activity (HCT-116 [8]): 30.21%
Activity (HCT-116 [9]): 36.03%
Activity (HCT-116 [10]): 11.13%
Activity (HCT-116 [11]): 40.12%
Activity (HCT-116 [12]): 48.75%

IC50 (HepG2): 71.3 µM
Structure (SMILES): COc1cc(Cc2nnc(SCC(=O)c3ccccc3)n2N2C(=O)c3ccccc3C2=O)cc(OC)c1OC

IC50 (HepG2): 16.2 µM
IC50 (HT-29): 10.8 µM
IC50 (HCT-116 [1]): 4 µM
IC50 (HeLa): 11.8 µM
Structure (SMILES): COc1ccc(C(=O)CSc2nnc(Cc3cc(OC)c(OC)c(OC)c3)n2N)cc1
IC50 [3]: > 100 µM

IC50 (HepG2): 78.3 µM
Structure (SMILES): O=C(CSc1nnc(-c2ccccn2)n1N1C(=O)c2ccccc2C1=O)c1ccc(Cl)cc1

IC50 (HepG2): 13.1 µM
IC50 (HT-29): 12.2 µM
IC50 (HCT-116 [1]): 7.57 µM
IC50 (HeLa): 29.4 µM
Structure (SMILES): COc1cc(COc2nnc(SCC(=O)c3ccc(C)cc3)n2N)cc(OC)c1OC
IC50 [3]: > 100 µM

IC50 (HepG2): 90.3 µM
Structure (SMILES): COc1ccc(C(=O)CSc2nnc(-c3ccccn3)n2N2C(=O)c3ccccc3C2=O)cc1

IC50 (HepG2): 61.1 µM
Structure (SMILES): COc1ccc(C(=O)CSc2nnc(Cc3cc(OC)c(OC)c(OC)c3)n2N2C(=O)c3ccccc3C2=O)cc1

IC50 (HepG2): 25.4 µM
IC50 (HT-29): 67.6 µM
IC50 (HCT-116 [1]): > 100 µM
IC50 (HeLa): > 100 µM
Structure (SMILES): COc1ccc(C(=O)CSc2nnc(OCc3cc(OC)c(OC)c(OC)c3)n2N)cc1
IC50 [3]: > 100 µM

IC50 (HepG2): 89.7 µM
Structure (SMILES): Cc1ccc(C(=O)CSc2nnc(-c3cnccn3)n2N2C(=O)c3ccccc3C2=O)cc1

IC50 (HepG2): 35.3 µM
Structure (SMILES): COc1cc(Cc2nnc(SCC(=O)c3ccc(C(F)(F)F)cc3)n2N2C(=O)c3ccccc3C2=O)cc(OC)c1OC
